Assay results as given in patent publication US9139557B2, “Carboxamide compounds and their use as calpain inhibitors” (Abbott GmbH & Co. KG, priority 2006, dated 2015).

Columns and labels:
Type in all cases: biochemical
cathepsin K = biological target: T1, cathepsin K (Homo sapiens, UniProt P43235); assay: Cathepsin K enzyme inhibition in vitro (kinetic fluorescence assay); details: Ki(cathepsin K)/Ki(calpain) ratio
T1 construct: purchased Calbiochem 342001; host or cells: E. coli
T1 sequence (P43235 115-329): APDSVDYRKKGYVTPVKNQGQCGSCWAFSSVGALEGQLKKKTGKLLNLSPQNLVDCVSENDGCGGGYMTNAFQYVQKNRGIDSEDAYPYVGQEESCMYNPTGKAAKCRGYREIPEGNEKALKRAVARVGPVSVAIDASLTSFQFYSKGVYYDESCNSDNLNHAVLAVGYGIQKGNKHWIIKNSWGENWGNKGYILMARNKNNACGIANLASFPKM

cathepsin S = biological target: T2, cathepsin S (Homo sapiens, UniProt P25774); assay: Cathepsin S enzyme inhibition in vitro (kinetic fluorescence assay); details: Ki(cathepsin S)/Ki(calpain) ratio
T2 construct: purchased Calbiochem 219343; host or cells: E. coli
T2 sequence (P25774 115-331): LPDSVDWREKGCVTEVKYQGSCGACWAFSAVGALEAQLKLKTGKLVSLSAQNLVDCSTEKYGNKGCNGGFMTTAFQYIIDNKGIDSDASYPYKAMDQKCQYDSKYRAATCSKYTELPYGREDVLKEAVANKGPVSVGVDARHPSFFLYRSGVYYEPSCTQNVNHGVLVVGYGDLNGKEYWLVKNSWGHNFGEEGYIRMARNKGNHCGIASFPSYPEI
In short: (§1)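 Kinetic fluorescence (ex 390/em 460 nm), RT. Calpain-I: 20 nM erythrocyte-derived, 100 μM Suc-Leu-Tyr-AMC, imidazole/CaCl2, pH 7.3. Cathepsins, pH 6.0 MES/EDTA/cysteine: B 0.25 nM liver, 100 μM Z-Phe-Arg-AMC; L 1 nM liver, 2 μM Z-Phe-Arg-AMC; S 0.5 nM recombinant, 20 μM Z-Val-Val-Arg-AMC. Cheng-Prusoff Ki, mean of 2–4 curves.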

cathepsin L = biological target: T3, cathepsin L (Homo sapiens, UniProt P07711); assay: Cathepsin L enzyme inhibition in vitro (kinetic fluorescence assay); details: Ki(cathepsin L)/Ki(calpain) ratio
T3 construct: cathepsin L—isolated from human liver; purchased Calbiochem 219402; host or cells: human liver (tissue isolate)
T3 sequence (P07711 114-333): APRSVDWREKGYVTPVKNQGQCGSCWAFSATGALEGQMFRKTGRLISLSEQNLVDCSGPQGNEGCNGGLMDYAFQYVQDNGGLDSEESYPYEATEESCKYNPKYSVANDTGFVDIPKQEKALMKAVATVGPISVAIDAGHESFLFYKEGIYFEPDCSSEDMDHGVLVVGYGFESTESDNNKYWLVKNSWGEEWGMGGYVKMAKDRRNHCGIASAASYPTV
In short: as §1

cathepsin B = biological target: T4, cathepsin B (Homo sapiens, UniProt P07858); assay: Cathepsin B enzyme inhibition in vitro (kinetic fluorescence assay); details: Ki(cathepsin B)/Ki(calpain) ratio
T4 construct: cathepsin B—isolated from human liver; purchased Calbiochem 219362; host or cells: human liver (tissue isolate)
In short: as §1

Compound	Sel cat. K (cathepsin K)	Sel cat. S (cathepsin S)	Sel cat. L (cathepsin L)	Sel cat. B (cathepsin B)
COc1ccc(CC(NC(=O)c2cccnc2-n2ccc(-c3ccc(F)cc3Cl)n2)C(=O)C(N)=O)cc1 (centres unmarked) [Example 111, N-(3-Amino-1-{[4-(methyloxy)phenyl]methyl}-2,3-dioxopropyl)-2-[3-(2-chloro-4-fluorophenyl)-1H-pyrazol-1-yl]pyridine-3-carboxamide]	++ (++ means a Ki(cathepsin K)/Ki(calpain) ratio of ≧30)	++ (++ means a Ki(cathepsin S)/Ki(calpain) ratio of ≧100)	++ (++ means a Ki(cathepsin L)/Ki(calpain) ratio of ≧50)	++ (++ means a Ki(cathepsin B)/Ki(calpain) ratio of ≧30)
NC(=O)C(=O)C(Cc1ccccc1)NC(=O)c1cccnc1-n1ccc(-c2ccccc2F)n1 (centres unmarked) [Example 76, N-(3-Amino-1-benzyl-2,3-dioxopropyl)-2-[3-(2-fluorophenyl)-1H-pyrazol-1-yl]nicotinamide]	+ (+ means 10≦Ki(cathepsin K)/Ki(calpain)<30)	++ (++ means a Ki(cathepsin S)/Ki(calpain) ratio of ≧100)	++ (++ means a Ki(cathepsin L)/Ki(calpain) ratio of ≧50)	++ (++ means a Ki(cathepsin B)/Ki(calpain) ratio of ≧30)
Cl.NC(=O)C(=O)C(Cc1cccnc1)NC(=O)c1cccnc1-n1ccc(-c2ccccc2)n1 (centres unmarked) [Example 88, N-[3-Amino-2,3-dioxo-1-(pyridin-3-ylmethyl)propyl]-2-(3-phenyl-1H-pyrazol-1-yl)pyridine-3-carboxamide hydrochloride]	++ (++ means a Ki(cathepsin K)/Ki(calpain) ratio of ≧30)	++ (++ means a Ki(cathepsin S)/Ki(calpain) ratio of ≧100)	++ (++ means a Ki(cathepsin L)/Ki(calpain) ratio of ≧50)	+ (+ means 10≦Ki(cathepsin B)/Ki(calpain)<30)
NC(=O)C(=O)C(Cc1ccccc1)NC(=O)c1cccnc1-n1ccc(-c2cccc(Cl)c2)n1 (centres unmarked) [Example 70, N-(3-Amino-1-benzyl-2,3-dioxopropyl)-2-[3-(3-chlorophenyl)-1H-pyrazol-1-yl]nicotinamide]	+ (+ means 10≦Ki(cathepsin K)/Ki(calpain)<30)	++ (++ means a Ki(cathepsin S)/Ki(calpain) ratio of ≧100)	++ (++ means a Ki(cathepsin L)/Ki(calpain) ratio of ≧50)	+ (+ means 10≦Ki(cathepsin B)/Ki(calpain)<30)
COc1ccc(F)cc1-c1ccn(-c2ncccc2C(=O)NC(Cc2ccccc2)C(=O)C(N)=O)n1 (centres unmarked) [Example 130, N-[3-Amino-2,3-dioxo-1-(phenylmethyl)propyl]-2-{3-[5-fluoro-2-(methyloxy)phenyl]-1H-pyrazol-1-yl}pyridine-3-carboxamide]	++ (++ means a Ki(cathepsin K)/Ki(calpain) ratio of ≧30)	++ (++ means a Ki(cathepsin S)/Ki(calpain) ratio of ≧100)	++ (++ means a Ki(cathepsin L)/Ki(calpain) ratio of ≧50)	++ (++ means a Ki(cathepsin B)/Ki(calpain) ratio of ≧30)
COc1ccc(CC(NC(=O)c2cccnc2-n2ccc(-c3ccc4c(c3)OC(F)(F)O4)n2)C(=O)C(N)=O)cc1 (centres unmarked) [Example 137, N-(3-Amino-1-{[4-(methyloxy)phenyl]methyl}-2,3-dioxopropyl)-2-[3-(2,2-difluoro-1,3-benzodioxol-5-yl)-1H-pyrazol-1-yl]pyridine-3-carboxamide]	+ (+ means 10≦Ki(cathepsin K)/Ki(calpain)<30)	++ (++ means a Ki(cathepsin S)/Ki(calpain) ratio of ≧100)	++ (++ means a Ki(cathepsin L)/Ki(calpain) ratio of ≧50)	+ (+ means 10≦Ki(cathepsin B)/Ki(calpain)<30)
NC(=O)C(=O)C(Cc1ccccc1)NC(=O)c1cccnc1-n1ccc(-c2cccc(OCc3ccccc3)c2)n1 (centres unmarked) [Example 96, N-[3-Amino-2,3-dioxo-1-(phenylmethyl)propyl]-2-(3-{3-[(phenylmethyl)oxy]phenyl}-1H-pyrazol-1-yl)pyridine-3-carboxamide]	++ (++ means a Ki(cathepsin K)/Ki(calpain) ratio of ≧30)	++ (++ means a Ki(cathepsin S)/Ki(calpain) ratio of ≧100)	++ (++ means a Ki(cathepsin L)/Ki(calpain) ratio of ≧50)	++ (++ means a Ki(cathepsin B)/Ki(calpain) ratio of ≧30)
NC(=O)C(=O)C(Cc1ccccc1)NC(=O)c1cccnc1-n1ccc(-c2c(Cl)cccc2Cl)n1 (centres unmarked) [Example 95, N-[3-Amino-2,3-dioxo-1-(phenylmethyl)propyl]-2-[3-(2,6-dichlorophenyl)-1H-pyrazol-1-yl]pyridine-3-carboxamide]	++ (++ means a Ki(cathepsin K)/Ki(calpain) ratio of ≧30)	++ (++ means a Ki(cathepsin S)/Ki(calpain) ratio of ≧100)	++ (++ means a Ki(cathepsin L)/Ki(calpain) ratio of ≧50)	++ (++ means a Ki(cathepsin B)/Ki(calpain) ratio of ≧30)
COc1ccccc1-c1ccn(-c2ncccc2C(=O)NC(Cc2ccccc2)C(=O)C(N)=O)n1 (centres unmarked) [Example 90, N-[3-Amino-2,3-dioxo-1-(phenylmethyl)propyl]-2-{3-[2-(methyloxy)phenyl]-1H-pyrazol-1-yl}pyridine-3-carboxamide]	+ (+ means 10≦Ki(cathepsin K)/Ki(calpain)<30)	++ (++ means a Ki(cathepsin S)/Ki(calpain) ratio of ≧100)	++ (++ means a Ki(cathepsin L)/Ki(calpain) ratio of ≧50)	++ (++ means a Ki(cathepsin B)/Ki(calpain) ratio of ≧30)
NC(=O)C(=O)C(Cc1ccc(F)cc1)NC(=O)c1cccnc1-n1ccc(-c2ccc(Cl)cc2Cl)n1 (centres unmarked) [Example 114, N-{-3-Amino-1-[(4-fluorophenyl)methyl]-2,3-dioxopropyl}-2-[3-(2,4-dichlorophenyl)-1H-pyrazol-1-yl]pyridine-3-carboxamide]	++ (++ means a Ki(cathepsin K)/Ki(calpain) ratio of ≧30)	++ (++ means a Ki(cathepsin S)/Ki(calpain) ratio of ≧100)	++ (++ means a Ki(cathepsin L)/Ki(calpain) ratio of ≧50)	++ (++ means a Ki(cathepsin B)/Ki(calpain) ratio of ≧30)
NC(=O)C(=O)C(Cc1ccccc1)NC(=O)c1cccnc1-n1cc2c(n1)-c1ccccc1CC2 (centres unmarked) [Example 63, N-(3-Amino-1-benzyl-2,3-dioxopropyl)-2-(4,5-dihydro-2H-benzo[g]indazol-2-yl)nicotinamide]	+ (+ means 10≦Ki(cathepsin K)/Ki(calpain)<30)	++ (++ means a Ki(cathepsin S)/Ki(calpain) ratio of ≧100)	++ (++ means a Ki(cathepsin L)/Ki(calpain) ratio of ≧50)	+ (+ means 10≦Ki(cathepsin B)/Ki(calpain)<30)
NC(=O)C(=O)C(Cc1ccc(Cl)cc1)NC(=O)c1cccnc1-n1ccc(-c2ccccc2)n1 (centres unmarked) [Example 50, N-[3-Amino-1-(4-chlorobenzyl)-2,3-dioxopropyl]-2-(3-phenyl-1H-pyrazol-1-yl)nicotinamide]	+ (+ means 10≦Ki(cathepsin K)/Ki(calpain)<30)	+ (+ means 50≦Ki(cathepsin S)/Ki(calpain)<100)	+ (+ means 30≦Ki(cathepsin L)/Ki(calpain)<50)	+ (+ means 10≦Ki(cathepsin B)/Ki(calpain)<30)
NC(=O)C(=O)C(Cc1ccccc1)NC(=O)c1cccnc1-n1ccc(-c2ccc(N3CCCC3)cc2)n1 (centres unmarked) [Example 69, N-(3-Amino-1-benzyl-2,3-dioxopropyl)-2-[3-(4-pyrrolidin-1-ylphenyl)-1H-pyrazol-1-yl]nicotinamide]	+ (+ means 10≦Ki(cathepsin K)/Ki(calpain)<30)	++ (++ means a Ki(cathepsin S)/Ki(calpain) ratio of ≧100)	++ (++ means a Ki(cathepsin L)/Ki(calpain) ratio of ≧50)	+ (+ means 10≦Ki(cathepsin B)/Ki(calpain)<30)
NC(=O)C(=O)C(Cc1ccccc1)NC(=O)c1cccnc1-n1ccc(-c2cccc3c2OC(F)(F)O3)n1 (centres unmarked) [Example 119, N-[3-Amino-2,3-dioxo-1-(phenylmethyl)propyl]-2-[3-(2,2-difluoro-1,3-benzodioxol-4-yl)-1H-pyrazol-1-yl]pyridine-3-carboxamide]	++ (++ means a Ki(cathepsin K)/Ki(calpain) ratio of ≧30)	++ (++ means a Ki(cathepsin S)/Ki(calpain) ratio of ≧100)	++ (++ means a Ki(cathepsin L)/Ki(calpain) ratio of ≧50)	++ (++ means a Ki(cathepsin B)/Ki(calpain) ratio of ≧30)
